# Source: ChEMBL document CHEMBL1135258, “Substrate spectrum of tyrocidine thioesterase probed with randomized peptide N-acetylcysteamine thioesters” (Bioorg Med Chem Lett, 2002)
# Where a SMILES comes first, the peptide text is derived from it. [ ]: non-standard residue; d: D form. The star is where a group is joined. SCH2CH2NHAc = CC(=O)NCCS*; Orn = NCCC[C@H](N)C(=O)O
# How the values were obtained:
# [1] = target: T1, Thioesterase GrsT homolog tycF (Brevibacillus brevis) (UniProt O30412); experiment: Apparent kinetic constant (Kcat) for tyrocidine thioesterase amplified from Bacillus brevis (ATCC8185)
# T1 sequence (whole entry): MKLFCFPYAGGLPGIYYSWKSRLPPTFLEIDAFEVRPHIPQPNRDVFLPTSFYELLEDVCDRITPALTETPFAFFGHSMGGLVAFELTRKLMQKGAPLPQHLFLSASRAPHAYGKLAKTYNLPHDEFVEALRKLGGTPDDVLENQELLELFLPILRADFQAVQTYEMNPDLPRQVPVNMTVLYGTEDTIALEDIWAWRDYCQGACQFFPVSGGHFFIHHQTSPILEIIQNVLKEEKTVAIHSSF
# [2] = target: T1, Thioesterase GrsT homolog tycF (Brevibacillus brevis); experiment: Catalytic efficiency (Kcat/Km) was determined; set-up: unit not given here
Compound,k cat [1] [s⁻¹],Ratio [2]
CC[C@@H](C)[C@H](NC(=O)[C@H](CC(N)=O)NC(=O)[C@@H](Cc1ccccc1)NC(=O)[C@H](Cc1ccccc1)NC(=O)[C@@H]1CCCN1C(=O)[C@H](N)Cc1ccccc1)C(=O)N[C@@H](Cc1ccc(O)cc1)C(=O)N[C@H](C(=O)N[C@@H](CCCN)C(=O)N[C@@H](CC(C)C)C(=O)SCCNC(C)=O)C(C)C,0.123,0.09
CC(=O)NCCSC(=O)[C@H](CC(C)C)NC(=O)[C@H](CCCN)NC(=O)[C@@H](NC(=O)[C@H](Cc1ccc(O)cc1)NC(=O)[C@H](CCC(N)=O)NC(=O)[C@H](CC(N)=O)NC(=O)[C@H](CC(=O)O)NC(=O)[C@H](Cc1ccccc1)NC(=O)[C@@H]1CCCN1C(=O)[C@H](N)Cc1ccccc1)C(C)C,0.233,0.058
CC(=O)NCCSC(=O)[C@H](CC(C)C)NC(=O)[C@H](CCCN)NC(=O)[C@@H](NC(=O)[C@H](Cc1ccc(O)cc1)NC(=O)[C@H](CCC(N)=O)NC(=O)[C@H](CC(N)=O)NC(=O)[C@H](CCCN=C(N)N)NC(=O)[C@H](Cc1ccccc1)NC(=O)[C@@H]1CCCN1C(=O)[C@H](N)Cc1ccccc1)C(C)C,0.2,0.51
CC(=O)NCCSC(=O)[C@H](CC(C)C)NC(=O)[C@H](CCCN)NC(=O)[C@H](CC(N)=O)NC(=O)[C@H](Cc1ccc(O)cc1)NC(=O)[C@H](CCC(N)=O)NC(=O)[C@H](CC(N)=O)NC(=O)[C@@H](Cc1ccccc1)NC(=O)[C@H](Cc1ccccc1)NC(=O)[C@@H]1CCCN1C(=O)[C@H](N)Cc1ccccc1,0.2,0.22
CC(=O)NCCSC(=O)[C@H](CC(C)C)NC(=O)[C@H](CCCN)NC(=O)[C@@H](NC(=O)[C@H](Cc1ccc(O)cc1)NC(=O)[C@H](CCC(N)=O)NC(=O)[C@H](CC(N)=O)NC(=O)[C@H](CCC(N)=O)NC(=O)[C@H](Cc1ccccc1)NC(=O)[C@@H]1CCCN1C(=O)[C@H](N)Cc1ccccc1)C(C)C,0.117,0.43
CC(=O)NCCSC(=O)[C@H](CC(C)C)NC(=O)[C@H](CCCN)NC(=O)[C@@H](NC(=O)[C@H](Cc1ccc(O)cc1)NC(=O)[C@H](CCC(N)=O)NC(=O)[C@H](CC(N)=O)NC(=O)[C@@H]1CCCN1C(=O)[C@H](Cc1ccccc1)NC(=O)[C@@H]1CCCN1C(=O)[C@H](N)Cc1ccccc1)C(C)C,0.25,0.11
CC(=O)NCCSC(=O)[C@H](CC(C)C)NC(=O)[C@H](CCCN)NC(=O)[C@@H](NC(=O)[C@H](Cc1ccc(O)cc1)NC(=O)[C@H](CCC(N)=O)NC(=O)[C@H](CC(N)=O)NC(=O)[C@@H](Cc1ccccc1)NC(=O)[C@H](Cc1ccccc1)NC(=O)[C@H](C)NC(=O)[C@H](N)Cc1ccccc1)C(C)C (H-[dF]AF[dF]NQYV[Orn]L-SCH2CH2NHAc),0.117,0.23
CSCC[C@H](NC(=O)[C@H](Cc1ccccc1)NC(=O)[C@@H]1CCCN1C(=O)[C@H](N)Cc1ccccc1)C(=O)N[C@@H](CC(N)=O)C(=O)N[C@@H](CCC(N)=O)C(=O)N[C@@H](Cc1ccc(O)cc1)C(=O)N[C@H](C(=O)N[C@@H](CCCN)C(=O)N[C@@H](CC(C)C)C(=O)SCCNC(C)=O)C(C)C,0.267,0.8
CC(=O)NCCSC(=O)[C@H](CC(C)C)NC(=O)[C@H](CCCN)NC(=O)[C@@H](NC(=O)[C@H](Cc1ccc(O)cc1)NC(=O)[C@H](CCC(N)=O)NC(=O)[C@H](CC(N)=O)NC(=O)CNC(=O)[C@H](Cc1ccccc1)NC(=O)[C@@H]1CCCN1C(=O)[C@H](N)Cc1ccccc1)C(C)C,0.133,0.36
CC(=O)NCCSC(=O)[C@H](CC(C)C)NC(=O)[C@H](CCCN)NC(=O)[C@@H](NC(=O)[C@H](Cc1ccc(O)cc1)NC(=O)[C@H](CCC(N)=O)NC(=O)[C@H](CC(N)=O)NC(=O)[C@H](CS)NC(=O)[C@H](Cc1ccccc1)NC(=O)[C@@H]1CCCN1C(=O)[C@H](N)Cc1ccccc1)C(C)C,0.11,0.25
